Source: paper PMC10146281, “Pharmacokinetic and Pharmacodynamic Characteristics of Pelubiprofen Tromethamine vs. Pelubiprofen in Healthy Subjects” (Pharmaceutics, 2023)
Like-named read-outs stand apart in the source and are kept apart here.

Target: T1, cyclooxygenase-2 (COX-2) (Homo sapiens, UniProt P35354)
T1 sequence (P35354 18-604): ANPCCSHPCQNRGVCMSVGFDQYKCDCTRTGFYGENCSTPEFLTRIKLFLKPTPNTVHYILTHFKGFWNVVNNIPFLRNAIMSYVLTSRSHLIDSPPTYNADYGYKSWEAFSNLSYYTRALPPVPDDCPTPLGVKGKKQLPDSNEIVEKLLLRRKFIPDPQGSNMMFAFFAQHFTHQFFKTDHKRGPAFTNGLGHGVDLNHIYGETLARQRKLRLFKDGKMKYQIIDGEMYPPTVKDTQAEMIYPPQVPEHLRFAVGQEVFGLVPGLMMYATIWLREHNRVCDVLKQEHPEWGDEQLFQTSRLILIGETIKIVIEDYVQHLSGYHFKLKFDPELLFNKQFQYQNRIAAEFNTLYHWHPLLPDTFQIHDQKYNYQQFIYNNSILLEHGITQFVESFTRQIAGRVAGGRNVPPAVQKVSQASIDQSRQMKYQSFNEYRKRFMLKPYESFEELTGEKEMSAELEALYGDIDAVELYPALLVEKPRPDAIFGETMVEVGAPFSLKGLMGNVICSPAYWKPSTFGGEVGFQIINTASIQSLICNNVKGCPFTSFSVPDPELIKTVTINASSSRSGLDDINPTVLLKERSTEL
Procedure: To analyze the pharmacodynamic (PD) characteristics, approximately 1 mL of blood was sampled from the subjects in Study I, who had agreed to participate in the associated PD evaluation. The blood sampling was performed before administration (0 h) and at the following time points after administration: 0.083 h (5 min), 0.167 h (10 min), 0.33 h (20 min) and 0.5, 0.75, 1, 1.5, 2, 2.5, 3, 3.5, 4, 6, and 8 h. Therefore, for each subject, the blood sampling was performed 15 times in each period. While the PD analysis was performed on the same schedule as the PK analysis, only period 1 and 2 results were included in the analyses, and the post study visit was not performed.
The pharmacodynamic (PD) analysis was performed on the subjects in Study I, who had agreed to participate in the PD evaluation. For pharmacodynamic evaluation, the lipopolysaccharide (LPS) from E. coli O111:B4 (Sigma-Aldrich, Seoul, Republic of Korea) and the prostaglandin E2 (PGE2) enzyme-linked immunosorbent assay (ELISA) monoclonal kit (Cayman Chemical, MI, USA) were used. This study was conducted on healthy subjects, and LPS was added to sampled blood to induce inflammatory gene expression. The following procedures were applied for the PGE2 concentration analysis of subjects in Study I, who had agreed to participate in the pharmacodynamic evaluation.
Into 1.0 mL of sampled blood, 10 μL of lipopolysaccharide (LPS) was added. The mixture was centrifuged at […] and 4 °C for 10 min. By mixing the PGE2 ELISA standard and 1.0 mL of ELISA buffer, the standard reagents were produced at 1000, 500, 250, 125, 62.5, 31.3, 15.6, 7.8 pg/mL concentrations. Subsequently, to each well of the 96-well plate, 50 μL of the standard reagent, PGE2 acetylcholinesterase (AChE) tracer, and PGE2 monoclonal antibody were added. Each plate was then covered with a plastic film to be cultured at 4 °C for 18 h. Then, the wells were washed with the buffer solution 5 times, after which 200 μL of Ellman’s reagent was added to each well. The plate was covered with film once more to be placed on an orbital shaker for 60 min. The plate was read at a wavelength of 410 nm.
Pharmacodynamic (PD) was analyzed with data from the first and second periods. The plasma Prostaglandin E2 (PGE2) concentration in the first and second periods of Study I was measured using the enzyme-linked immunosorbent assay (ELISA) at the same time points as in the PK analysis: before investigational drug administration (0 h) and after drug administration at 0.083 h (5 min), 0.167 h (10 min), 0.33 h (20 min), and 0.5, 0.75, 1, 1.5, 2, 2.5, 3, 3.5, 4, 6, and 8 h. Therefore, for each subject, the measurements were taken 15 times in each period. While the PD analysis was performed on the same schedule as the PK analysis, only period 1 and 2 results were included in the analyses, and the post-study visit was not performed.
The PGE2 concentration and the cyclooxygenase-2 (COX-2) inhibitory effect derived from baseline (0 h time point before drug administration) values for each subject in Study I were visualized. The decreased level of calibrated PGE2 concentration performed in accordance with the concentration at baseline for each subject was tested as the extent of COX-2 inhibition, and the GMR and respective 90% CI of the COX-2 inhibition were applied in the PD analysis.
The pharmacodynamic (PD) data from the subjects in Study I, who had agreed to participate in the PD evaluation, were analyzed as follows to check for outliers. Grubbs’ test was performed when the normality of the data was satisfied; otherwise, a boxplot was drawn for log-transformed values, after which values outside the interquartile range (IQR) were checked for subsequent use in Grubb’s test. For significant outliers, the data excluding the values were analyzed once again.

[1] = Study I, all subjects N = 30, 25 mg pelubiprofen tromethamine vs. 30 mg pelubiprofen
[2] = Study I, without outliers N = 28, 25 mg pelubiprofen tromethamine vs. 30 mg pelubiprofen

SMILES | Tmax,i (time of peak baseline-corrected COX-2 inhibition) (Study I periods 1 and 2, all subjects N = 30, single oral 25 mg pelubiprofen tromethamine, median (minimum–maximum)) | Tmax,I (time of peak baseline-corrected COX-2 inhibition) (Study I periods 1 and 2, without outliers (A03 and A08) N = 28, single oral 25 mg pelubiprofen tromethamine, median (minimum–maximum)) | Geometric Mean Ratio (90% CI) of AUIC [1] | Geometric Mean Ratio (90% CI) of Imax [1] | Geometric Mean Ratio (90% CI) of Tmax,i [1] | maximum COX-2 inhibitory effect compared to the reference (Study I, all subjects, 25 mg pelubiprofen tromethamine compared to 30 mg pelubiprofen) | COX-2 inhibitory effect compared to the reference (Study I, excluding two outlier subjects (A03 and A08), 25 mg pelubiprofen tromethamine compared to 30 mg pelubiprofen) | Geometric Mean Ratio (90% CI) of AUIC [2] | Geometric Mean Ratio (90% CI) of Imax [2] | Geometric Mean Ratio (90% CI) of Tmax,I [2] | Geometric Mean Ratio (90% CI) of Imax (Study I, without outliers N = 28, 25 mg pelubiprofen tromethamine vs. 30 mg pelubiprofen, listed as pelubiprofen tromethamine) | time after administration until which COX-2 inhibition was maintained (Study I, single oral 30 mg pelubiprofen) | Tmax,I (time of peak baseline-corrected COX-2 inhibition) (human, in vivo, po, 30 mg) | Tmax,PGE2 (human, in vivo, po, 30 mg) | Tmax,i (time of peak baseline-corrected COX-2 inhibition) (human, in vivo, po, 30 mg)
CC(C(=O)O)c1ccc(/C=C2\CCCCC2=O)cc1 (stereo not drawn) [Pelubiprofen Tromethamine, pelubiprofen tromethamine] | 0.50 (0.00–3.50) h | 0.50 (0.17–3.50) h | 1.09 (0.94–1.27) | 0.98 (0.95–1.02) | 1.01 (0.75–1.35) | approximately 98% | approximately 98% | 1.03 (0.91–1.18) | 0.98 (0.95–1.01) | 1.00 (0.73–1.36) | approximately 0.98 | – | – | – | –
CC(C(=O)O)c1ccc(/C=C2\CCCCC2=O)cc1 (stereo not drawn) [Pelubiprofen, 2-[4-(oxocyclohexylidenemethyl)-phenyl] propionic acid] | – | – | – | – | – | – | – | – | – | – | – | approximately 8 h | 0.50 (0.33–3.50) h | 0.08 (0.00–8.00) h | 0.50 (0.33–3.50) h
